Among the data in PubChem BioAssay AID1259408 (Genetic Toxicology Data Bank (GENE-TOX), 2018) are mutagenic call and call values, retold here.

For the data set, the system named is GENE-TOX genotoxicity assays, various organisms and cells. Put plainly: GENE-TOX mutagenicity studies. The note with it: for call: Assay Type: In vivo carcinogenicity studies.
Setting [1] is: Species/Cell Type: Nonhuman, Assay Code: CCG+, Evaluation Type: Evaluation A (Pre-1980).
Where [2] appears, read: Species/Cell Type: Salmonella typhimurium (one or more of the five standard strains: TA98, TA100, TA1535, TA1537, and TA1538), Assay Type: Histidine reverse gene mutation, Ames assay, Assay Code: SAL+, Evaluation Type: Evaluation A (Pre-1980).
The mark [3] stands for this setting: Species/Cell Type: Saccharomyces cerevisiae, Assay Type: Mitotic recombination or gene conversion, Assay Code: YEC+, Evaluation Type: Evaluation A (Pre-1980).
[4] abbreviates: Species/Cell Type: Salmonella typhimurium (one or more of the five standard strains: TA98, TA100, TA1535, TA1537, and TA1538), Assay Type: Histidine reverse gene mutation, Ames assay, Assay Code: SAL+*, Activation: With metabolic activation, Evaluation Type: Evaluation A (Pre-1980).

Activity calls are given as the source filed them. The rule behind the calls is not given here.

`Cc1nc(N(C)C)nc(OC(=O)N(C)C)c1C`: the mutagenic call (Species/Cell Type: Aspergillus nidulans, Assay Type: Aneuploidy, chromosome aberrations, Assay Code: ASN-, Evaluation Type: Evaluation A (Pre-1980)) was “inactive; negative”.

Consider `CN(C)c1ccc(C(=O)c2ccc(N(C)C)cc2)cc1`, for which, where the note is “Species/Cell Type: Fischer rat embryo (RLV/1706) cells, Assay Type: Cell transformation, viral enhanced, Assay Code: CTR+, Evaluation Type: Evaluation A (Pre-1980)”, the mutagenic call is “active; positive”. Under setting [1], the call was “active; positive”.

As for `O=C(O)c1ccc2ccccc2n1`, for the setting “Species/Cell Type: Salmonella typhimurium (one or more of the five standard strains: TA98, TA100, TA1535, TA1537, and TA1538), Assay Type: Histidine reverse gene mutation, Ames assay, Assay Code: SALT, Evaluation Type: Evaluation A (Pre-1980)”, the mutagenic call is given as “no conclusion”.

Regarding `CN(C)C(=S)SC(=S)N(C)C`, the mutagenic call (Species/Cell Type: Mammalian polychromatic erythrocytes, Assay Type: Micronucleus test, chromosome aberrations, Assay Code: MNT+U, Dose Response: Unconfirmed positive response, Evaluation Type: Evaluation B (Post-1980)) was “active; positive”.

Regarding `O=C1N(CCO)CCN1/N=C/c1ccc([N+](=O)[O-])o1`, the mutagenic call under setting [2] is “active; positive”.

`CCCCCC(=O)C(CCCC)c1oc(=O)c(CCCC)c(O)c1CCCC` (stereo not given): the mutagenic call is listed as “no conclusion” (Species/Cell Type: Human lymphocytes, Assay Type: Sister-chromatid exchange (SCE) in vitro, Assay Code: SCLT, Evaluation Type: Evaluation B (Post-1980)) and “no conclusion” (Species/Cell Type: Human, Assay Type: Sister-chromatid exchange (SCE) in vitro, Assay Code: SC1T, Evaluation Type: Evaluation B (Post-1980)).

Regarding `O`, the mutagenic call is “no conclusion” (Species/Cell Type: Bacillus subtilis (H17 vs M45), Assay Type: Rec-assay, spot test, DNA effects (bacterial DNA repair), Assay Code: REWT, Evaluation Type: Evaluation A (Pre-1980)); “no conclusion” (Species/Cell Type: Nonhuman, Assay Type: Sister-chromatid exchange (SCE) in vitro, Assay Code: SC2T, Evaluation Type: Evaluation B (Post-1980)); “inactive; negative” (Species/Cell Type: Syrian hamster embryo (SA7/SHE) cells, Assay Type: Cell transformation, viral enhanced, Assay Code: CT7-, Evaluation Type: Evaluation A (Pre-1980)).

For `NNC(=O)COc1ccc(Br)cc1CN1CCOCC1`, where the note is “Species/Cell Type: Saccharomyces cerevisiae, Assay Type: Reverse gene mutation, Assay Code: YERT, Evaluation Type: Evaluation A (Pre-1980)”, the mutagenic call was “no conclusion”.

Regarding `CN1CCN(c2ccc3nc(-c4ccc5nc(-c6ccc(O)cc6)[nH]c5c4)[nH]c3c2)CC1`, the mutagenic call is, setting by setting: (Species/Cell Type: Nonhuman, Assay Type: Sister-chromatid exchange (SCE) in vitro, Assay Code: SC2+D, Dose Response: With dose response, Evaluation Type: Evaluation A (Pre-1980)) “active; positive”; (Species/Cell Type: Nonhuman, Assay Type: Sister-chromatid exchange (SCE) in vivo, Assay Code: SC3-, Evaluation Type: Evaluation A (Pre-1980)) “inactive; negative”; (Species/Cell Type: Nonhuman, Assay Type: Sister-chromatid exchange (SCE) in vivo, Assay Code: SC3T, Evaluation Type: Evaluation B (Post-1980)) “no conclusion”.

As to `CCN(CC)CCn1nc2c3c(c(CO)ccc31)Sc1ccccc1-2`, the mutagenic call by setting is: (Species/Cell Type: Drosophila melanogaster, Assay Type: Sex-linked recessive lethal gene mutation, Assay Code: SRLT, Evaluation Type: Evaluation A (Pre-1980)) “no conclusion”; (Species/Cell Type: Mouse lymphoma (L5178Y) cells, Assay Type: Forward gene mutation at the thymidine kinase (TK) locus, chromosome aberrations, Assay Code: L51+, Evaluation Type: Evaluation A (Pre-1980)) “active; positive”; (Species/Cell Type: Neurospora crassa, Assay Type: Forward gene mutation, Assay Code: NEF+, Evaluation Type: Evaluation A (Pre-1980)) “active; positive”.

On to `CCCCCCCC(=O)OCC(COC(=O)CCCCCCC)OC(=O)CCCCCCC`, for which the mutagenic call (Species/Cell Type: Mouse, Sex: Female, Assay Type: Spot test, gene mutation, Assay Code: MSTT, Evaluation Type: Evaluation A (Pre-1980)) was “no conclusion”.

Consider `O=c1c(O)c(-c2ccc(O)c(O)c2)oc2cc(O)cc(O)c12`, for which the mutagenic call is “no conclusion” (Species/Cell Type: Chinese hamster ovary (CHO) cells, Assay Type: Forward gene mutation at the HPRT locus, Assay Code: CHOT, Evaluation Type: Evaluation B (Post-1980)); “active; positive” (Species/Cell Type: Human lymphocytes, Assay Type: Sister-chromatid exchange (SCE) in vitro, Assay Code: SCL+D, Dose Response: With dose response, Evaluation Type: Evaluation B (Post-1980)); “active; positive” (Species/Cell Type: Human, Assay Type: Sister-chromatid exchange (SCE) in vitro, Assay Code: SC1+D, Dose Response: With dose response, Evaluation Type: Evaluation B (Post-1980)); “active; positive” (Species/Cell Type: Mammalian polychromatic erythrocytes, Assay Type: Micronucleus test, chromosome aberrations, Assay Code: MNT+, Evaluation Type: Evaluation B (Post-1980)); “inactive; positive without activation, negative with activation” (Species/Cell Type: Nonhuman, Assay Type: Sister-chromatid exchange (SCE) in vitro, Assay Code: SC2+/-*, Activation: With metabolic activation, Evaluation Type: Evaluation B (Post-1980)); “inactive; negative” (Species/Cell Type: Nonhuman, Assay Type: Sister-chromatid exchange (SCE) in vivo, Assay Code: SC3-, Evaluation Type: Evaluation B (Post-1980)). Besides, the mutagenic call is “active; positive” under setting [3] and “active; positive” under setting [2].

Turning to `O=[N+]([O-])c1ccccc1O`, the mutagenic call (Species/Cell Type: Allium cepa, Assay Type: Chromosome aberrations, Assay Code: ALC-, Evaluation Type: Evaluation A (Pre-1980)) is “inactive; negative”.

Turning to `C1=Cc2c(cc3ccc4cccc5ccc2c3c45)CC1`, the mutagenic call under setting [4] is “active; positive”.

With `O[C@@H]1C=Cc2c(ccc3cc4c(ccc5ccccc54)cc23)[C@H]1O`, where the note is “Species/Cell Type: Nonhuman, Assay Code: CCG+L, Evaluation Type: Evaluation A (Pre-1980)”, the call was “active; positive”. For the same compound, the mutagenic call was “active; positive” (Species/Cell Type: Nonhuman, Assay Type: Sister-chromatid exchange (SCE) in vitro, Assay Code: SC2+D, Dose Response: With dose response, Evaluation Type: Evaluation B (Post-1980)) and “active; positive” under setting [4].

For the compound `ONc1ccc(-c2ccccc2)cc1`, under setting [2], the mutagenic call was “active; positive”.

Take `CCOCc1c(O)cc2c(c1O)C(=O)c1ccccc1C2=O`: the mutagenic call under setting [2] was “active; positive”.

For the compound `CCOC(=O)N(C)N=O`, the mutagenic call was “active; positive” (Species/Cell Type: Arabidopsis species, Assay Type: Gene mutation, Assay Code: ARM+D, Dose Response: With dose response, Evaluation Type: Evaluation A (Pre-1980)); “active; positive” (Species/Cell Type: Bacillus subtilis (H17 vs M45T), Assay Type: Rec-assay, spot test, DNA effects (bacterial DNA repair), Assay Code: REX+, Evaluation Type: Evaluation A (Pre-1980)); “active; positive” (Species/Cell Type: Drosophila melanogaster, Assay Type: Sex-linked recessive lethal gene mutation, Assay Code: SRL+, Evaluation Type: Evaluation A (Pre-1980)); “no conclusion” (Species/Cell Type: Drosophila melanogaster, Sex: Male, Assay Type: Heritable translocation test, chromosome aberrations, Assay Code: DHTT, Evaluation Type: Evaluation A (Pre-1980)); “active; positive” (Species/Cell Type: Escherichia coli polA (W3119 vs P3478), Assay Type: Rec-assay, DNA effects (bacterial DNA repair), Assay Code: RE1+, Evaluation Type: Evaluation A (Pre-1980)); “active; positive” (Species/Cell Type: Hordeum vulgare (barley), Assay Type: Chromosome aberrations, Assay Code: HOC+D, Dose Response: With dose response, Evaluation Type: Evaluation A (Pre-1980)). In addition, the mutagenic call reads like this: (Species/Cell Type: Hordeum vulgare (barley), Assay Type: Gene mutation, Assay Code: HOM+, Evaluation Type: Evaluation A (Pre-1980)) “active; positive”; (Species/Cell Type: Saccharomyces cerevisiae, Assay Type: Forward gene mutation, Assay Code: YEF+, Evaluation Type: Evaluation A (Pre-1980)) “active; positive”; under setting [3], “active; positive”; (Species/Cell Type: Saccharomyces cerevisiae, Assay Type: Mitotic recombination or gene conversion, Assay Code: YEH+, Evaluation Type: Evaluation A (Pre-1980)) “active; positive”; under setting [2], “active; positive”; (Species/Cell Type: Schizosaccharomyces pombe, Assay Type: Reverse gene mutation, Assay Code: YEZ+, Evaluation Type: Evaluation A (Pre-1980)) “active; positive”. Under setting [1], the call was “active; positive”.

With `CN(C)c1ccc(C#N)cc1`, the mutagenic call (Species/Cell Type: Mammalian polychromatic erythrocytes, Assay Type: Micronucleus test, chromosome aberrations, Assay Code: MNTT, Evaluation Type: Evaluation B (Post-1980)) is “no conclusion”.

As for `CCCCC=O`, the mutagenic call by setting is: (Species/Cell Type: Human lymphocytes, Assay Type: Sister-chromatid exchange (SCE) in vitro, Assay Code: SCL+, Evaluation Type: Evaluation B (Post-1980)) “active; positive”; (Species/Cell Type: Human, Assay Type: Sister-chromatid exchange (SCE) in vitro, Assay Code: SC1+, Evaluation Type: Evaluation B (Post-1980)) “active; positive”.
